Source: patent publication US10899732B2, “Substituted benzamides useful as sodium channel blockers” (GENENTECH, INC., priority 2015, dated 2021)
Where a name gives a salt, the structure may show the parent alone.

Columns and labels:
[1] = biological target: T1, hNav1.7 (Homo sapiens, UniProt Q15858); test: Tritiated sulfonamide competitive binding to membranes from cells expressing hNav1.7 and the β1 subunit (LBA); conditions: competition with 100 pM [3H]compound, 18 h, room temperature; read-out: Nav1.7 (LBA)
T1 construct: expressed in transfected cells
Experimental: Tritiated Sulfonamide Binding to Membranes Isolated from Cells that Heterologously Express hNav1.7 and the β1 Subunit
Preparation of membranes containing recombinantly expressed sodium channels: Frozen recombinant cell pellets were thawed on ice and diluted to 4 times the cell pellet weight with ice cold 50 mM Tris HCl, pH 7.4 buffer. The cell suspensions were homogenized on ice using a motorized glass dounce homogenizer. Homogenates were further diluted 8.4 times with ice cold 50 mM Tris HCl, pH 7.4 buffer and then centrifuged at 200×g at 4° C. for 15 min. The supernatants were collected and centrifuged at 10000×g at 4° C. for 50 min. The pellets were then re-suspended in 100 mM NaCl, 20 mM Tris HCl, pH 7.4 buffer containing 1% v/v protease inhibitors (Calbiochem) and re-homogenized on ice. The homogenized membranes were then processed through a syringe equipped with a 26 gauge needle. Protein concentrations were determined by Bradford Assay and the membranes were stored at −80° C.
Saturation experiments. A competitive NaV1.7 inhibitor having a methyl group was tritiated. Three tritiums were incorporated in place of methyl hydrogens to generate [^3H]compound. Binding of this radioligand was preformed in 5 mL borosilicate glass test tubes at room temperature. Binding was initiated by adding membranes to increasing concentrations of [^3H]compound in 100 mM NaCl, 20 mM Tris HCl, pH 7.4 buffer containing 0.01% w/v bovine serum albumin (BSA) for 18 h. Non-specific binding was determined in the presence of 1 μM unlabelled compound. After 18 h, the reactants were filtered through GF/C glass fiber filters presoaked in 0.5% w/v polyethylene imine. Filters were washed with 15 mL ice cold 100 mM NaCl, 20 mM Tris HCl, pH 7.4 buffer containing 0.25% BSA to separate bound from free ligand. [^3H]compound bound to filters was quantified by liquid scintillation counting.
Binding reactions were performed in 96-well polypropylene plates at room temperature for 18 h. In 360 μL, membranes were incubated with 100 pM [^3H]compound and increasing concentrations of Test Compound. Non-specific binding was defined in the presence of 1 μM unlabelled compound. Reactions were transferred and filtered through 96-well glass fiber/C filter plates presoaked with 0.5% polyethylene imine. The filtered reactions were washed 5 times with 200 μL ice cold buffer containing 0.25% BSA. Bound radioactivity was determined by liquid scintillation counting.
Data Analysis: For saturation experiments, non-specific binding was subtracted from total binding to provide specific binding and these values were recalculated in terms of pmol ligand bound per mg protein. Saturation curves were constructed and dissociation constants were calculated using the single site ligand binding model: Beq=(Bmax*X)/(X+Kd), where Beq is the amount of ligand bound at equilibrium, Bmax is the maximum receptor density, Kd is the dissociation constant for the ligand, and X is the free ligand concentration. For competition studies percent inhibition was determined and IC50 values were calculated using a 4 parameter logistic model (% inhibition=(A+((B−A)/(1+((x/C)^D)))) using XLfit, where A and B are the maximal and minimum inhibition respectively, C is the IC50 concentration and D is the (Hill) slope.

[2] = biological target: T2, NaV1.7 (Homo sapiens, UniProt Q15858); test: Patch voltage clamp electrophysiology assay (EP), NaV1.7 in HEK-293 cells; type: cell-based; conditions: HEK-293, β1 coexpressed, held at -60 mV (inactivated state)
T2 construct: expression vector containing the full-length cDNA coding for the desired human sodium channel α-subunit; expressed in transfected cells; host or cells: HEK-293
Text: (§1) Electrophysiological Assay (EP) (In Vitro Assay)
(§2) Patch voltage clamp electrophysiology allows for the direct measurement and quantification of block of voltage-gated sodium channels (NaV's), and allows the determination of the time- and voltage-dependence of block which has been interpreted as differential binding to the resting, open, and inactivated states of the sodium channel (Hille, B., Journal of General Physiology (1977), 69: 497-515).
(§3) The following patch voltage clamp electrophysiology studies were performed on representative compounds of the invention using human embryonic kidney cells (HEK), permanently transfected with an expression vector containing the full-length cDNA coding for the desired human sodium channel α-subunit, grown in culture media containing 10% FBS, 1% PSG, and 0.5 mg/mL G418 at 37° C. with 5% CO2. […] NaV1.7 and NaV1.5 cDNAs (NM_002977 and AC137587; SCN5A, respectively) were stably expressed in HEK-293 cells. The β1 subunit was coexpressed in both the NaV1.7 and NaV1.5 cell lines.
(§4) Sodium currents were measured using the patch clamp technique in the whole-cell configuration using either a PatchXpress automated voltage clamp or manually using an Axopatch 200B (Axon Instruments) or Model 2400 (A-M systems) amplifier. The manual voltage clamp protocol was as follows: Borosilicate glass micropipettes were fire-polished to a tip diameter yielding a resistance of 2-4 Mohms in the working solutions. The pipette was filled with a solution comprised of: 5 mM NaCl, 10 mM CsCl, 120 mM CsF, 0.1 mM CaCl2, 2 mM MgCl2, 10 mM HEPES, 10 mM EGTA; and adjusted to pH 7.2 with CsOH. The external solution had the following composition: 140 mM NaCl, 5 mM KCl, 2 mM CaCl2, 1 mM MgCl2, 10 mM HEPES; and adjusted to pH 7.4 with NaOH. In some studies, the external sodium was reduced by equimolar replacement with choline. Osmolarity in the CsF internal and NaCl external solutions was adjusted to 300 mOsm/kg and 310 mOsm/kg with glucose, respectively. All recordings were performed at ambient temperature in a bath chamber with a volume of 150 μL. Control sodium currents were measured in 0.5% DMSO. Controls and representative compounds of the invention were applied to the recording chamber through a 4-pinch or 8-pinch valve bath perfusion system manufactured by ALA Scientific Instruments.
(§5) Currents were recorded at 40 kHz sampling frequency, filtered at […], and stored using a Digidata-1322A analogue/digital interface with the pClamp software (Axon Instruments). Series resistance compensation was applied (60-80%). […] All statistics in this study are given as mean±SD.
(§6) The membrane potential was maintained at a voltage where inactivation of the channel is complete (which was −60 mV for both NaV1.7 and NaV1.5). The voltage is then stepped back to a very negative (Vhold=[…]) voltage for 20 ms and then a test pulse is applied to quantify the compound block. The 20 ms brief repolarization was long enough for compound-free channels to completely recover from fast inactivation, but the compound-bound channels recovered more slowly such that negligible recovery could occur during this interval. The percent decrease in sodium current following wash-on of compound was taken as the percent block of sodium channels.

[3] = biological target: T3, NaV1.5 (Homo sapiens, UniProt Q14524); test: Patch voltage clamp electrophysiology assay (EP), NaV1.5 in HEK-293 cells; type: cell-based; conditions: HEK-293, β1 coexpressed, held at -60 mV (inactivated state)
T3 construct: expression vector containing the full-length cDNA coding for the desired human sodium channel α-subunit; expressed in transfected cells; host or cells: HEK-293
Text: as §1, §2, §3, §4, §5, §6

T1 sequence (Q15858 1-1977 isoform Q15858-3): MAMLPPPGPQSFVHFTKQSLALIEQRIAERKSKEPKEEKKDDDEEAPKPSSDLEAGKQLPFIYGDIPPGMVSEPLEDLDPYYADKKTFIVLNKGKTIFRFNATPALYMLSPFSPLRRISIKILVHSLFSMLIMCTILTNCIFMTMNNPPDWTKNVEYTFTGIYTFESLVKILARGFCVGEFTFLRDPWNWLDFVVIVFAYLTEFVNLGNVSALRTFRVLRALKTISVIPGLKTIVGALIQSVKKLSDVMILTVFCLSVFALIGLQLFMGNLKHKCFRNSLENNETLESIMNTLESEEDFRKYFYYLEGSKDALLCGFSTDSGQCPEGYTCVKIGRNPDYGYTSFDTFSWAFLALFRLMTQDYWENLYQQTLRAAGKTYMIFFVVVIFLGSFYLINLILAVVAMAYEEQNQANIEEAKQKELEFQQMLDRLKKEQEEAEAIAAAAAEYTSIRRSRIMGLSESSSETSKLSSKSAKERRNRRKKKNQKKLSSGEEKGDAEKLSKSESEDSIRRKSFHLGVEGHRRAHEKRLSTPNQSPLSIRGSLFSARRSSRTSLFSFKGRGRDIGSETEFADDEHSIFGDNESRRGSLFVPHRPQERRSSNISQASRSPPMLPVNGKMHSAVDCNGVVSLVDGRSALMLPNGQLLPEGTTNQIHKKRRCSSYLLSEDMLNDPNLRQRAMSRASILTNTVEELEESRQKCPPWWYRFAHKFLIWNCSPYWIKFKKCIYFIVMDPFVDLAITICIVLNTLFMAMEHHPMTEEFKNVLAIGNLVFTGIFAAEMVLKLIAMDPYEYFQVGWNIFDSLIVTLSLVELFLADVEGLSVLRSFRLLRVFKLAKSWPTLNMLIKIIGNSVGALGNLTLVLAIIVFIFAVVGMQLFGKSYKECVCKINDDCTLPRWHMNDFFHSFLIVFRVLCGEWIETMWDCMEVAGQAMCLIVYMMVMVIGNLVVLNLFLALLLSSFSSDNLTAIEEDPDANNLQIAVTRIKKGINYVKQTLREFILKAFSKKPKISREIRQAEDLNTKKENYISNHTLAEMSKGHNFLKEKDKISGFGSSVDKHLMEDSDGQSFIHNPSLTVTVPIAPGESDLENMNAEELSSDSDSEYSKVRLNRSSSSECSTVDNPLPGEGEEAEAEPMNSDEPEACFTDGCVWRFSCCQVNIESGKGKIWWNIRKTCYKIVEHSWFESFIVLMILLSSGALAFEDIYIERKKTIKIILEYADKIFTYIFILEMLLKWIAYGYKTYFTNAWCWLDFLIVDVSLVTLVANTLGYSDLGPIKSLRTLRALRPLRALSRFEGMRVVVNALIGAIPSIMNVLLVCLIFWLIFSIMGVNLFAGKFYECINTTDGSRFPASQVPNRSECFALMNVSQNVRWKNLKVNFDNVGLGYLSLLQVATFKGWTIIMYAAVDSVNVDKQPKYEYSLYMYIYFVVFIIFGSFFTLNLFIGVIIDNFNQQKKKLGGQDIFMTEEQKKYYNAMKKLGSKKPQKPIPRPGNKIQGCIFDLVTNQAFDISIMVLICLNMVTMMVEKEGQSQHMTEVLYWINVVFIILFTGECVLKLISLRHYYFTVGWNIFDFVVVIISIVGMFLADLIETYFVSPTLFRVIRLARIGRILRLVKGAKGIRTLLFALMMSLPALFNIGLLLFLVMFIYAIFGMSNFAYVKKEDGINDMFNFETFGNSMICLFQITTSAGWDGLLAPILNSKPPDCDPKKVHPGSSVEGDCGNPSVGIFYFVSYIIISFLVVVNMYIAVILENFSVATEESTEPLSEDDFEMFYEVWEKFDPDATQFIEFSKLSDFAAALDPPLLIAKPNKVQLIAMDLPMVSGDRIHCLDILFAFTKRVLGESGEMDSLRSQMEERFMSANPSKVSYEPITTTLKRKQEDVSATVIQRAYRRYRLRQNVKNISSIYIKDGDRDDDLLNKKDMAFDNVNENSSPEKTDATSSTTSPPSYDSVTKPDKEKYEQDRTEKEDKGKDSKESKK
T1 sequence (Q07699 19-218 partner): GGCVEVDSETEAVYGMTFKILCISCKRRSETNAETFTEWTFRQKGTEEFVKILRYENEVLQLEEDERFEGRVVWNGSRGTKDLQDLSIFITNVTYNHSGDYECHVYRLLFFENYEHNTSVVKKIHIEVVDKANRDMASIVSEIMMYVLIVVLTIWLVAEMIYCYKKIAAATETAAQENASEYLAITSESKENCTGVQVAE
T2 sequence (Q15858 1-1977 isoform Q15858-3): as the sequence (Q15858 1-1977 isoform Q15858-3) above
T2 sequence (Q07699 19-218 partner): as the sequence (Q07699 19-218 partner) above
T3 sequence (Q14524 whole entry): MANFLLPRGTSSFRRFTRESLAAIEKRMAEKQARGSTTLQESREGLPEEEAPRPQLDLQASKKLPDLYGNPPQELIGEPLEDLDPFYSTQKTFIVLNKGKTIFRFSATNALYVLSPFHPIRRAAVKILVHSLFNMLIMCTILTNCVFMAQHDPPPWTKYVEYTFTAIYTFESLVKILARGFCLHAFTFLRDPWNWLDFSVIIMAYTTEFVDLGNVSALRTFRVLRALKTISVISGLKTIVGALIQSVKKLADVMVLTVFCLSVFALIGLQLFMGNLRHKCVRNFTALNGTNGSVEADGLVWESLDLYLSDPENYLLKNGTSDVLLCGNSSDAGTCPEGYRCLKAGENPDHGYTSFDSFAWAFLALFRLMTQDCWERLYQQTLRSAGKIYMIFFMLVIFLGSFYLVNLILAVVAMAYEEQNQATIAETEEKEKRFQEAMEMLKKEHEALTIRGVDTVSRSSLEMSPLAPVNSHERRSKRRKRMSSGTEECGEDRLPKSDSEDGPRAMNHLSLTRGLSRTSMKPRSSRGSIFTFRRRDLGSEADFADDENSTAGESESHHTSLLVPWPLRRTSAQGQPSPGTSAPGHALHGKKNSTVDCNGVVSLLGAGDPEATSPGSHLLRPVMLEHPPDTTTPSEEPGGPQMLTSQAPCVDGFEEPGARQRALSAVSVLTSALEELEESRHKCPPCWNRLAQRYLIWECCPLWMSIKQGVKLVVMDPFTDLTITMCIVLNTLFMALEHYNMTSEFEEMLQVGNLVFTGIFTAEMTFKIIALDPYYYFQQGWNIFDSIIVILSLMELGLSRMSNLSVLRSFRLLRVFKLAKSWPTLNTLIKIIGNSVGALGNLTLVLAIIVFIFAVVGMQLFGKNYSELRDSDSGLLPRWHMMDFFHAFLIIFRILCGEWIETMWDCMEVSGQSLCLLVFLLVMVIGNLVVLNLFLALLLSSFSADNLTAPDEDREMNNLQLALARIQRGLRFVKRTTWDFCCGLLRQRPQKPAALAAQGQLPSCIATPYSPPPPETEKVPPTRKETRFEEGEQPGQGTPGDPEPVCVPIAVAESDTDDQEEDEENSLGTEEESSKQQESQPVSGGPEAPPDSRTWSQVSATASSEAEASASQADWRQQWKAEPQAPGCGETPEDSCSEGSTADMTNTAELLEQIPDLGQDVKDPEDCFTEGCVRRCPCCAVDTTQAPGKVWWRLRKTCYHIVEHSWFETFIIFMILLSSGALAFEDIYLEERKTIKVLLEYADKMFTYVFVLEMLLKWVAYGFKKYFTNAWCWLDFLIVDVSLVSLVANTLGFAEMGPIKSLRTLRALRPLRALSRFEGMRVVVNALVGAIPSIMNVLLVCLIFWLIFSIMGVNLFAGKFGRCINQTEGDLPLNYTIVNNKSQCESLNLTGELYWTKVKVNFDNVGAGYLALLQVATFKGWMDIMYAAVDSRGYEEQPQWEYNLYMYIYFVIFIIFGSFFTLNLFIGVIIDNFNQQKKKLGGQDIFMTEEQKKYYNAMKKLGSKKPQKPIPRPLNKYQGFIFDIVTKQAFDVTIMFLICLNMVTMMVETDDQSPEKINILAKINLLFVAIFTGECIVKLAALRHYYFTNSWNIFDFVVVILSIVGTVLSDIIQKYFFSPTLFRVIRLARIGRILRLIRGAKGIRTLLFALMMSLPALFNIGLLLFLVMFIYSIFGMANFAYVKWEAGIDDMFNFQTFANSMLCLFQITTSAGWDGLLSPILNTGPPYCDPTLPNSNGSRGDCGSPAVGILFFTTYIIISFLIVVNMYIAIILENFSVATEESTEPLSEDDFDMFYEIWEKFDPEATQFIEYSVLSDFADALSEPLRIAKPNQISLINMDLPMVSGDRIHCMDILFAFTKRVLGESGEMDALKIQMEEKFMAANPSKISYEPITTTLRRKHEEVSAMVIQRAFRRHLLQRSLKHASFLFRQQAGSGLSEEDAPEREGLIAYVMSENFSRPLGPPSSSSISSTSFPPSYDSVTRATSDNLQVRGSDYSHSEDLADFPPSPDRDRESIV

Work on `Cc1nn(C2CCN(Cc3cc(Cl)cc(OC(F)(F)F)c3)CC2)c2cc(F)c(C(=O)NS(C)(=O)=O)cc12` [Example 4, 1-(1-(3-chloro-5-(trifluoromethoxy)benzyl)piperidin-4-yl)-6-fluoro-3-methyl-N-(methylsulfonyl)-1H-indazole-5-carboxamide 2,2,2-trifluoroacetate] yielded an IC50 [1] of 24 nM, an IC50 [2] of 420 nM and an IC50 [3] of 26000 nM.

`Cc1nn(C2CCN(Cc3cc(Cl)cc(OC(F)(F)F)c3)CC2)c2cc(F)c(C(=O)NS(=O)(=O)C3CC3)cc12` [Example 5, 1-(1-(3-chloro-5-(trifluoromethoxy)benzyl)piperidin-4-yl)-N-(cyclopropylsulfonyl)-6-fluoro-3-methyl-1H-indazole-5-carboxamide] was tested, and the IC50 [1] was 6 nM, the IC50 [2] was 51 nM and the IC50 [3] was 2400 nM.

Compound `Cc1nn(C2CCN(Cc3cc(Cl)cc(Cl)c3)CC2)c2cc(F)c(C(=O)NS(=O)(=O)C3CC3)cc12` [Example 6, N-(cyclopropylsulfonyl)-1-(1-(3,5-dichlorobenzyl)piperidin-4-yl)-6-fluoro-3-methyl-1H-indazole-5-carboxamide 2,2,2-trifluoroacetate] has an IC50 [1] of 14 nM, an IC50 [2] of 72 nM and an IC50 [3] of 7000 nM.

`Cc1nn(C2CCN(Cc3cc(OC(F)(F)F)ccc3Br)CC2)c2cc(F)c(C(=O)NS(=O)(=O)C3CC3)cc12` [Example 7, 1-(1-(2-bromo-5-(trifluoromethoxy)benzyl)piperidin-4-yl)-N-(cyclopropylsulfonyl)-6-fluoro-3-methyl-1H-indazole-5-carboxamide 2,2,2-trifluoroacetate] showed an IC50 [1] of 5 nM, an IC50 [2] of 9 nM and an IC50 [3] of 630 nM.

With `Cc1nn(C2CCN(Cc3cc(Cl)ccc3C(F)(F)F)CC2)c2cc(F)c(C(=O)NS(=O)(=O)C3CC3)cc12` [Example 8, 1-(1-(5-chloro-2-(trifluoromethyl)benzyl)piperidin-4-yl)-N-(cyclopropylsulfonyl)-6-fluoro-3-methyl-1H-indazole-5-carboxamide] the IC50 [1] was 5 nM, the IC50 [2] was 26 nM and the IC50 [3] was 610 nM.

`Cc1nn(C2CCN([C@H](C)c3cc(Cl)cc(Cl)c3)CC2)c2cc(F)c(C(=O)NS(=O)(=O)C3CC3)cc12` [Example 9, (R)-N-(cyclopropylsulfonyl)-1-(1-(1-(3,5-dichlorophenyl)ethyl)piperidin-4-yl)-6-fluoro-3-methyl-1H-indazole-5-carboxamide] was tested, and the IC50 [1] was 6 nM, the IC50 [2] was 46 nM and the IC50 [3] was 8300 nM.

In the case of `Cc1nn(C2CCN([C@@H](C)c3cc(Cl)cc(Cl)c3)CC2)c2cc(F)c(C(=O)NS(=O)(=O)C3CC3)cc12` [Example 10, (S)-N-(cyclopropylsulfonyl)-1-(1-(1-(3,5-dichlorophenyl)ethyl)piperidin-4-yl)-6-fluoro-3-methyl-1H-indazole-5-carboxamide], the IC50 [1] is reported as 10 nM, the IC50 [2] is reported as 33 nM and the IC50 [3] is reported as 14000 nM.

`Cc1nn([C@@H]2CCN(Cc3cc(Cl)cc(OC(F)(F)F)c3)C2)c2cc(F)c(C(=O)NS(=O)(=O)C3CC3)cc12` [Example 11, (R)-1-(1-(3-chloro-5-(trifluoromethoxy)benzyl)pyrrolidin-3-yl)-N-(cyclopropylsulfonyl)-6-fluoro-3-methyl-1H-indazole-5-carboxamide 2,2,2-trifluoroacetate] was tested, and the IC50 [1] was 13 nM, the IC50 [2] was 23 nM and the IC50 [3] was 800 nM.

`Cc1nn([C@@H]2CCN(Cc3cc(Cl)ccc3C(F)(F)F)C2)c2cc(F)c(C(=O)NS(=O)(=O)C3CC3)cc12` [Example 12, (R)-1-(1-(5-chloro-2-(trifluoromethyl)benzyl)pyrrolidin-3-yl)-N-(cyclopropylsulfonyl)-6-fluoro-3-methyl-1H-indazole-5-carboxamide 2,2,2-trifluoroacetate] gave an IC50 [1] of 5 nM, an IC50 [2] of 32 nM and an IC50 [3] of 510 nM.

For `Cc1nn(C2CCN(c3ccc(Cl)c(C(F)(F)F)n3)CC2)c2cc(F)c(C(=O)NS(=O)(=O)C3CC3)cc12` [Example 13, 1-(1-(5-chloro-6-(trifluoromethyl)pyridin-2-yl)piperidin-4-yl)-N-(cyclopropylsulfonyl)-6-fluoro-3-methyl-1H-indazole-5-carboxamide 2,2,2-trifluoroacetate], the IC50 [1] was 15 nM, the IC50 [2] was 250 nM and the IC50 [3] was 2400 nM.

Work on `Cc1nn(C2CN(Cc3cc(Cl)cc(OC(F)(F)F)c3)C2)c2cc(F)c(C(=O)NS(C)(=O)=O)cc12` [Example 14, 1-(1-(3-chloro-5-(trifluoromethoxy)benzyl)azetidin-3-yl)-6-fluoro-3-methyl-N-(methylsulfonyl)-1H-indazole-5-carboxamide] yielded an IC50 [1] of 32 nM, an IC50 [2] of 400 nM and an IC50 [3] of 13000 nM.

For `Cc1nn(C2CN(Cc3cc(Cl)cc(OC(F)(F)F)c3)C2)c2cc(F)c(C(=O)NS(=O)(=O)C3CC3)cc12` [Example 15, 1-(1-(3-chloro-5-(trifluoromethoxy)benzyl)azetidin-3-yl)-N-(cyclopropylsulfonyl)-6-fluoro-3-methyl-1H-indazole-5-carboxamide], the IC50 [1] was 11 nM, the IC50 [2] was 88 nM and the IC50 [3] was 3200 nM.

`Cc1nn([C@@H]2CCN([C@H](C)c3cc(Cl)cc(Cl)c3)C2)c2cc(F)c(C(=O)NS(C)(=O)=O)cc12` [Example 16, 1-((R)-1-((R)-1-(3,5-dichlorophenyl)ethyl)pyrrolidin-3-yl)-6-fluoro-3-methyl-N-(methylsulfonyl)-1H-indazole-5-carboxamide, trifluoroacetic acid salt] showed an IC50 [1] of 17 nM, an IC50 [2] of 100 nM and an IC50 [3] of 13000 nM.

`Cc1nn([C@@H]2CCN([C@H](C)c3cc(Cl)cc(Cl)c3)C2)c2cc(F)c(C(=O)NS(=O)(=O)C3CC3)cc12` [Example 17, N-(cyclopropylsulfonyl)-1-((R)-1-((R)-1-(3,5-dichlorophenyl)ethyl)pyrrolidin-3-yl)-6-fluoro-3-methyl-1H-indazole-5-carboxamide 2,2,2-trifluoroacetate] gave an IC50 [1] of 6 nM, an IC50 [2] of 45 nM and an IC50 [3] of 880 nM.
